The record followed here is PubChem BioAssay AID720570 (Broad Institute, 2013).

Values joined by “and” are separate entries in the source; they are usually repeats but may differ in a detail not shown here. Equal values may be shown once.

In the test the test system is TC71 Ewing sarcoma viability, CellTiter-Glo ATP, 72 h. The test can be described thus: TC71 Ewing sarcoma cell killing, confirmation, luminescence, cherry-picked samples, retest (AID 720570).
For `COc1cccc(O)c1CN1CCC(C(=O)Nc2ccc(-c3cccc(C)c3)cc2)CC1`, the AC35 was 20.7 µM.

Regarding `Cc1cc(C)c2sc(NNC(=O)c3ccc(S(=O)(=O)N4CCc5ccccc5C4)cc3)nc2c1`, the AC35 is 2.4 µM.

Turning to `C[C@H](CO)N1C[C@H](C)[C@H](CN(C)CC2CCCCC2)Oc2ccc(NC(=O)CCCCCC(=O)Nc3ccccc3N)cc2CC1=O`, the AC35 is 18.9 µM.

Turning to `C[C@@H]1CN([C@H](C)CO)S(=O)(=O)c2ccc(C#CC(C)(C)O)cc2O[C@H]1CN(C)Cc1ccc(-c2ccccc2)cc1`, the AC35 is 3.05 µM.

With `O=C(NCc1cccnc1)C1Cc2c(-c3ccc(Cl)cc3)ccnc2O1` (stereo unspecified), the AC35 was 13.2 µM.

In the case of `COc1cc(-c2noc(C)c2C#Cc2nccn2C)cc(OC)c1OC`, the AC35 was 13.1 µM.

`Nc1cc2c(cc1Br)[nH]c(=O)c1ccccc12`: the AC35 is 23.3 µM.

With `CN1c2ccc(-c3ccc(C#N)cc3)cc2[C@H]2[C@H](CCN2S(=O)(=O)c2cccc(F)c2)[C@H]1CO`, the AC35 was 3.77 µM.

Take `C[C@H](CO)N1C[C@H](C)[C@H](CN(C)Cc2ccccc2)Oc2ccc(NC(=O)CCCCCC(=O)Nc3ccccc3N)cc2CC1=O`: the AC35 was 15.1 µM.

Regarding `CCN(Cc1ccccc1)c1ccc(/C=N/N=C(N)N)cc1`, the AC35 was 15.2 µM.

As for `N=c1ccn2c(n1)O[C@H]1[C@H](O)[C@@H](CO)O[C@H]12`, the AC35 is 3 µM.

Turning to `C[C@@H]1CN([C@H](C)CO)C(=O)Cc2cc(NC(=O)CCCCCC(=O)Nc3ccccc3N)ccc2O[C@@H]1CN(C)CC1CCCCC1`, the AC35 was 16.9 µM.

In the case of `COc1ccc(CN(C)c2ncnc3sccc23)c(OC)c1OC`, the AC35 was 16.2 µM.

Consider `C[C@]12CC[C@H](O)C[C@H]1CC[C@@H]1[C@@H]2C[C@@H](O)[C@]2(C)[C@@H](C3=CC(=O)OC3)CC[C@]12O`, for which the AC35 is 3.35 µM.

Regarding `COc1cccc(-c2cc(NC=O)c3ncc(-c4ccc(C(C)=O)cc4)n3c2)c1`, the AC35 is 1.78 µM.

As for `Oc1cccc(-c2nnc(-c3cccc(O)c3)nn2)c1`, the AC35 was 21.3 µM.

Regarding `C[C@H](O)C#Cc1ccc2c(c1)O[C@@H](CN(C)Cc1ccc(-c3ccccc3)cc1)[C@H](C)CN([C@@H](C)CO)S2(=O)=O`, the AC35 is 3.82 µM and 4.62 µM.

As to `Cc1cc2c(C(C)C)c(O)c(O)c(C=O)c2c(O)c1-c1c(C)cc2c(C(C)C)c(O)c(O)c(C=O)c2c1O`, the AC35 was 5.02 µM.

`COc1ccc(C2=Nn3c(nnc3-c3ccccc3OC)SC2)cc1OCC1CC1`: the AC35 is 6.68 µM.

Consider `Cc1nc(N)nc(N)c1/C=C/C(C)(C)c1ccc(Cl)cc1`, for which the AC35 was below 0.011 µM.

With `COC1C(C)OC(OC2CC(C)(O)Cc3cc4c(c(O)c32)C(=O)c2c(O)cc3c(c2C4=O)OC2OC3(C)C(O)C(N(C)C)C2O)C(OC)C1(C)OC` (stereo unspecified), the AC35 is 0.169 µM.

Turning to `Cc1cccc(CN2C(=O)/C(=C\c3ccc(C(=O)NCCCN4CCN(C)CC4)cc3)Oc3ccccc32)c1`, the AC35 was 12.9 µM.

As for `Cc1nc(N)nc(N)c1CCCc1ccc(Cl)c(Cl)c1`, the AC35 is 1.81 µM.

Turning to `O=c1ccc2ccccc2c2ccccc12`, the AC35 is 10.5 µM.

On to `Cc1ccc(N2C(=O)c3cccc4c(N)ccc(c34)C2=O)c2cccnc12`, for which the AC35 is 0.0977 µM.

`COc1ccc(S(=O)(=O)Nc2cccc3c2O[C@H](CN(C)Cc2ccc(C(=O)Nc4ccccc4N)cc2)[C@H](C)CN([C@@H](C)CO)C3=O)cc1`: the AC35 is 5.62 µM.

On to `O=C1NC(=O)N(Cc2ccccc2)C(=O)/C1=C\C=C\c1ccco1`, for which the AC35 is 10.2 µM.

With `C[C@H](CO)N1C[C@H](C)[C@H](CN(C)Cc2ccc(C(F)(F)F)cc2)Oc2ccc(NC(=O)CCCCCC(=O)Nc3ccccc3N)cc2CC1=O`, the AC35 was 11.5 µM.

For the compound `CCc1nc(N)nc(N)c1-c1ccc(Cl)c(N=[N+]=[N-])c1`, the AC35 was 3.56 µM.

For the compound `OCC1OC(n2cnc3c(NCc4ccco4)ncnc32)C(O)C1O` (stereo unspecified), the AC35 is 7.82 µM.

As to `CCCCCCCCCCCCCCCCCCNc1ccn(C2OC(COP(=O)(O)OCC3OC(n4cc(F)c(=O)[nH]c4=O)CC3O)C(O)C2O)c(=O)n1` (stereo unspecified), the AC35 is 2.77 µM.

On to `Nc1nc(N)c2cc(Sc3ccc4ccccc4c3)ccc2n1`, for which the AC35 was 1.83 µM.

Turning to `Cc1noc(C)c1C(=O)Nc1sccc1C(N)=O`, the AC35 is 13.6 µM.

Take `CC12CCC(O)CC1CCC1C2CCC2(C)C(C3=CC(=O)OC3)CCC12O` (stereo unspecified): the AC35 was 1.17 µM.

Consider `CCCCc1c(Cc2ccccc2)ncn1CCc1ccccc1OC`, for which the AC35 is 14.4 µM.

Take `CC(=O)Oc1ccc(-c2ccc(C(=O)Nc3cccc(S(=O)(=O)N4CCOCC4)c3)cc2)cc1`: the AC35 was 3.71 µM.

As to `COC(=O)C[C@@H]1CC[C@@H]2[C@H](COc3ccc(NC(=O)c4cc(C)on4)cc3C(=O)N2C)O1`, the AC35 was 12 µM.

Regarding `C[C@@H]1CN([C@H](C)CO)C(=O)c2cc(NC(=O)c3ccccc3)ccc2O[C@@H](C)CCCCO[C@H]1CN(C)C(=O)Nc1cccc2ccccc12`, the AC35 is 1.58 µM.

For the compound `C[C@H]1CN([C@@H](C)CO)C(=O)c2cc(N(C)C)ccc2O[C@@H]1CN(C)Cc1ccc(C(=O)Nc2ccccc2N)cc1`, the AC35 was 17.7 µM.

For `C/C(=C\c1ccccc1)C(=O)N1CCC=CC1=O`, the AC35 is 13.7 µM.

On to `Cc1cccc(NC(=O)CN2CCN(C(=O)CNC(=O)c3ccc(-c4ccccc4)cc3)CC2)c1C`, for which the AC35 is 8.9 µM.

Consider `C[C@]12CC[C@H]3[C@@H](CC[C@]4(O)C[C@@H](O)CC[C@]34C=O)[C@@]1(O)CC[C@@H]2C1=CC(=O)OC1`, for which the AC35 is 2.24 µM.

Regarding `O=c1c2ccccc2nc(/C=C/c2cc(Br)ccc2O)n1CCCO`, the AC35 was 13.8 µM.

With `CN(C)CC1CCC/C(=C\c2ccc(OC(=O)c3ccc(Cl)cc3)cc2)C1=O` (stereo unspecified), the AC35 is 3.4 µM.

With `CC1OC(OC2CC(O)C3(CO)C4C(O)CC5(C)C(C6=CC(=O)OC6)CCC5(O)C4CCC3(O)C2)C(O)C(O)C1O` (stereo unspecified), the AC35 is 0.173 µM.

Consider `Oc1c(C(c2ccc(Cl)cc2)N2CCCC2)cc(Cl)c2cccnc12` (stereo unspecified), for which the AC35 is 6.32 µM.

In the case of `C[C@@H]1O[C@@H](O[C@H]2C[C@@H](O)[C@]3(CO)[C@H]4[C@H](O)C[C@]5(C)[C@@H](C6COC(=O)C6)CC[C@]5(O)[C@@H]4CC[C@]3(O)C2)[C@H](O)[C@H](O)[C@H]1O` (stereo partly specified), the AC35 is 4.19 µM.

For the compound `O=C(N/N=C/c1cccs1)c1n[nH]c2c1CCCC2`, the AC35 was 17.2 µM.

As to `CC12CCC3C(CCC4(O)CC(O)CCC34C=NO)C1(O)CCC2C1=COC(=O)C1` (stereo unspecified), the AC35 was 0.97 µM.

For the compound `C[C@H]1O[C@@H](O[C@H]2[C@@H](O)C[C@H](O[C@H]3[C@@H](O)C[C@H](O[C@H]4CC[C@@]5(C)[C@H](CC[C@@H]6[C@@H]5C[C@@H](O)[C@]5(C)[C@@H](C7=CC(=O)OC7)CC[C@]65O)C4)O[C@@H]3C)O[C@@H]2C)C[C@H](O)[C@@H]1O`, the AC35 was 0.283 µM.

For `O=C(NC[C@@H]1N[C@@H](CO)[C@H]1c1ccc(C2=CCCCC2)cc1)c1cccc(F)c1`, the AC35 is 12.3 µM.

In the case of `C[C@H](CO)N1C[C@H](C)[C@H](CN(C)Cc2ccc(Oc3ccccc3)cc2)Oc2ccc(NC(=O)CCCCCC(=O)Nc3ccccc3N)cc2CC1=O`, the AC35 was 11.5 µM.

As to `C(=Cc1cnc2ccccc2n1)c1ccc2c(c1)OCO2`, the AC35 was 15.2 µM.

On to `CCCCC[C@H](C)N1C[C@H](COCc2ccccc2)Oc2cc(N3CC[C@@H](N(C)C)C3)ccc2S1(=O)=O`, for which the AC35 is 14.2 µM.

Turning to `CN(C[C@H]1N[C@@H](CO)[C@@H]1c1ccc(C2=CCCC2)cc1)C(=O)c1ccc(F)cc1`, the AC35 was 3.92 µM.

Consider `C[C@H](CO)N1C[C@H](C)[C@H](CN(C)Cc2ccc(C(=O)Nc3ccccc3N)cc2)Oc2c(cccc2N(C)C)C1=O`, for which the AC35 was 17.1 µM.
